Reference: patent US6927210B1, “Ectoparasiticidal aqueous suspension formulations of spinosyns” (Eli Lilly and Company, priority 1999, dated 2005)

Assay: Solution state of spinosad in dip water
Assay type: physicochemical
Settings: 5 and 50 ppm
Experimental: Two trials were conducted to determine the degree to which spinosad is removed (stripped) from dip water after dipping sheep. In the trials, spinosad dip tank concentrations of 50 ppm and 5 ppm were prepared from an aqueous suspension containing 25 g/L of spinosad. Both trials involved dipping 10 Dorset-cross shorn sheep in 70 gallons (265 liters) of treated water. Each animal was dipped for 30 seconds duration, with the head immersed twice. Samples of dip water were taken for HPLC analysis, initially and after each sheep was dipped. The pH of the water was also determined after each animal was dipped. A dip tank concentration of 5 ppm of spinosad should provide lice control on sheep.

In the case of spinosad, the “Solution state in dip water (in words)” value is reported as “in true solution at 5 and 50 ppm concentration”.
